Read-outs that look alike come from different tables or passages of the source.

The subject of assay [1] is T. cruzi trypomastigotes (CL Brener strain). Description: In vitro activity against cell-derived trypomastigotes of T. cruzi (alamar Blue). Type of assay: cell-based, Trypanosoma cruzi. To be noted: for IC50: Trypanosoma cruzi, 24 h, read-out: IC50 Trypomastigotes T. cruzi ± SD. A general note: Resazurin is reduced to fluorescent resorufin, in cell work by metabolically active cells.

Assay [2] concerns VERO cells. Description: Cytotoxicity on VERO cells (MTT assay). To be noted: Primates, 24 h, read-out: IC50 VERO ± SD. Type of assay: cell-based, African green monkeys. Here is the method: VERO cells. VERO cells (ATCC CCL81, Manassas, VA, USA) were used as mammalian cell model for testing unspecific cytotoxicity. This cell lineage was isolated from kidney epithelial cells from African green monkeys and is widely used for phenotypic screening of drugs as it is regarded as a normal cell derived from epithelial tissue.
Cells were cultured in RPMI medium (Gibco, Grand Island, NY, USA) supplemented with 10% heat inactivated fetal bovine serum, penicillin (100 units/mL) and streptomycin (100 µg/mL) at 37 °C in a humidified 5% CO2 incubator. For maintenance, confluent cells were washed with PBS, incubated for 3 min with trypsin-EDTA (Gibco), diluted and re-plated.
The compounds were initially dissolved in DMSO (stock concentration). […]
For the cytotoxicity assay, 10,000 cells per well were seeded in a 96-well plate in RPMI medium and were incubated at 37 °C in a 5% CO2 atmosphere. […] Cell viability was assessed using MTT (3-(4, 5-dimethylthiazolyl-2)-2, 5-diphenyltetrazolium bromide) assay, where MTT is reduced by metabolically active cells to generate reducing equivalents such as NADH and NADPH, resulting in the formation of an intracellular purple formazan which can be solubilized by the addition of DMSO. […] Plates were kept for 15 min with agitation and absorbance was measured at 570 nm in a Thermo Scientific Varioskan® Flash Multimode instrument (Waltham, MA, USA). […]
On the technique in general: Tetrazolium assays rely on reduction of a dye to a coloured formazan, in cell work by metabolically active cells.

Assay [3] relates to T. cruzi epimastigotes (CL Brener strain). Description: In vitro activity against epimastigotes of T. cruzi (alamar Blue). As to conditions: for IC50: Trypanosoma cruzi, 24 h, read-out: IC50 Epimastigotes T. cruzi ± SD. In kind it is cell-based, Trypanosoma cruzi.
Another assay relates to calf thymus DNA (ctDNA). Nature of the assay: Competitive binding to {DNA-EB} adduct by fluorescence. To be noted: ctDNA 1.5 μM, EB 0.75 μM, 10 mM Tris-HCl pH 7.4, DMSO ≤5% v/v. How it is done:
Experiments for competitive binding to calf thymus DNA (ctDNA, SIGMA, Type I, No. D-1501, St. […] Millipore water was used for the preparation of solutions of the complexes for the studies and for buffer solution. Fluorescence measurements were performed as titration using a fixed concentration of ctDNA and EB while gradually increasing the concentration of the [V^VO(IN-2H)(L2-H)] complex, L2 and IN free ligands. ctDNA stock solutions were prepared by hydrating ctDNA in Tris-HCl buffer (1 mg mL^−1, ~2 mM nuc^−1). This solution was allowed to stand at 4 °C. The concentration of the stock solution was determined by UV spectrophotometry using the molar absorption coefficient ε (260 nm) = 6600 M^−1cm^−1nuc^−1 [76]. An EB 0.5 mM solution was prepared in Tris-HCl buffer. Due to the low solubility of the complexes in aqueous media, DMSO was used to prepare concentrated stock solutions, followed by appropriate dilution. […] Fluorescence spectra were recorded from 540 nm to 680 nm at an excitation wavelength of 510 nm on a Shimadzu RF 5301 spectrofluorimeter (Kyoto, Japan) and in a 10.0 × 10.0 mm^2 quartz cuvette. Samples with only compounds and ctDNA (without EB) were used as blanks and subtracted from the sample spectra. […] KSV were determined from the plot of F0/F versus [Q].

Assay [4] relates to VERO cells. On the set-up: method as in doi:10.1039/C9NJ02589H. To be noted: ref [42], read-out: IC50 VERO ± SD; cited from earlier work.
Assay [5] relates to Caenorhabditis elegans Bristol strain N2. Nature of the assay: In vivo toxicity on C. elegans (motility, viability, development). To be noted: C. elegans L4, 2 µM, positive control. How it is done: The wild-type Caenorhabditis elegans (C. elegans) Bristol strain N2 and Escherichia coli (E. coli) OP50 strain were obtained from the Caenorhabditis Genomics Center (Minneapolis, MN, USA). Worms were maintained under standard conditions at 20 °C on Nematode Growth Media (NGM) agar plates seeded with E. coli OP50 as a source of food as previously described. The method used to assess toxicity is based on worm motility according to previously described. Briefly, the locomotor activity recording system, WMicrotracker^TM ONE (PhylumTech, Santa Fe, Argentina) detects infrared microbeam interruptions. Synchronized L4 C. elegans worms were removed from culture plates and washed three times with M9 buffer (3 g KH2PO4; 6 g Na2HPO4; 5 g NaCl; 1 mL 1 M MgSO4 per liter) by centrifugation at 1000 g. Worms in M9 1% DMSO were plated in 96-well flat microtiter plates (Deltalab, Barcelona, Spain). Approximately 70 worms per well were seeded in 60 µL M9 buffer containing 1% DMSO and their basal movement was measured for 30 min to normalize the movement activity for each well at the beginning of the assay. Then, compound [V^VO(IN-2H)(L2-H)] dissolved in M9 buffer 1% DMSO was added to a final concentration range of 6.5–100 µM in a final volume of 100 µL per well. […] The motility using WMicrotracker^TM ONE was measured for 18 h. […]

For `O=C(N/N=C/c1c(O)ccc2ccccc12)c1ccncc1` [IN], in assay [1], the “activity on trypomastigotes (in words)” value was “negligible activity”. Besides, the IC50 was > 20 µM in assay [1] (CL Brener strain, cell-derived); 22.6 ± 3.7 µM in the assay on VERO cells [2]; > 20 µM in assay [3] (CL Brener strain). Besides, the “activity on epimastigotes (in words)” value in assay [3] is given as “negligible activity”. In the assay with calf thymus DNA (ctDNA), the “log (KSV), Stern–Volmer constant for competitive binding to {DNA-EB} adduct” value turned out to be 4.29.

On to `Oc1cccc2cccnc12` [L0], for which the half-maximal inhibitory concentration (IC50) was 0.47 ± 0.07 µM in assay [1], 9.42 ± 2.23 µM in assay [3] and 10.1 ± 3.9 µM in the assay on VERO cells [4].

Consider `Oc1c(Cl)cc(Cl)c2cccnc12` [L1, 5,7-dichloro-8-hydroxyquinolne], for which the IC50 in assay [1] (CL Brener strain, cell-derived) is 2.25 ± 0.95 µM; in assay [3] (CL Brener strain), 7.17 ± 1.07 µM; in the assay on VERO cells [4], 66.5 ± 13.1 µM.

As to `Oc1c(I)cc(Cl)c2cccnc12` [L2, 5-chloro-7-iodo-8-hydroxyquinoline], the half-inhibitory concentration (IC50) is 0.4 ± 0.08 µM in assay [1] (CL Brener strain, cell-derived); 2.76 ± 0.52 µM in assay [3] (CL Brener strain); 64.7 ± 9.1 µM in the assay with VERO cells [4]. Moreover, the “log (KSV), Stern–Volmer constant for competitive binding to {DNA-EB} adduct” value with calf thymus DNA (ctDNA) worked out at 4.68.

Consider `Oc1c(I)cc(I)c2cccnc12` [L3], for which the IC50 is 1.1 ± 0.88 µM in assay [1] (CL Brener strain, cell-derived); 2.17 ± 0.35 µM in assay [3] (CL Brener strain); 75.5 ± 16.3 µM in the assay with VERO cells [4].

For `O=[N+]([O-])c1ccc(O)c2ncccc12` [L4], the IC50 in assay [1] (CL Brener strain, cell-derived) is 1.01 ± 0.73 µM; in assay [3] (CL Brener strain) it was 2.58 ± 0.56 µM; in the assay on VERO cells [4], 12.5 ± 4.5 µM.

As for `CC1CS(=O)(=O)CCN1/N=C/c1ccc([N+](=O)[O-])o1` (centres unmarked) [Nifurtimox], the concentration for half-maximal inhibition (IC50) in assay [1] (CL Brener strain, cell-derived) was 20.1 ± 2.86 µM; in assay [3] (CL Brener strain), 3.68 ± 0.71 µM; in the assay with VERO cells [4] it was 998 ± 90.6 µM.

Take ivermectin: in assay [5], the “effect on worm motility” value was “reduced motility to zero”.

What is called IC50 is the point on the concentration scale where inhibition reaches its midpoint.

The record behind these values is paper PMC8433833, “Heteroleptic Oxidovanadium(V) Complexes with Activity against Infective and Non-Infective Stages of Trypanosoma cruzi” (Molecules, 2021).
